Measured values as given in US20100105688A1, “PHARMACEUTICAL COMPOSITIONS COMPRISING 3,5-DIAMINO-6-(2,3-DICHLOPHENYL)-1,2,4-TRIAZINE OR R(-)-2,4-DIAMINO-5-(2,3-DICHLOROPHENYL)-6-FLUOROMETHYL PYRIMIDINE AND AN NK1” (GLAXO GROUP LIMITED, priority 2007, published 2010).
Read-outs that look alike come from different tables or passages of the source.

Columns and labels:
[1] = test system: Male CD rats; experiment: Rat MEST model (seizure threshold, CC50); assay type: in vivo
Experimental: This work was conducted in compliance with the Home Office Guidance on the operation of the Animals (Scientific Procedures) Act 1986 and GlaxoSmithKline ethical standards. Male CD rats (100-145 g) were supplied by Charles River, UK. Animals were group housed (6 animal per cage) with free access to food (Standard rodent chow; Harlan, UK) and water under a 12 h light/dark cycle (lights on at 0700 h). A period of at least one week between arrival at GSK and the study was allowed in all cases.
Animals were administered a test compound at the appropriate dose, route and pre-treatment time and returned to their home cage. Testing occurred in a separate room from that used for housing. Testing involved determining the threshold for tonic hindlimb extensor seizures using a Hugo Sachs Electronik stimulator which delivers a constant current of 0.3 second duration, 50 Hz, sinewave form, fully adjustable between 1 and 300 mA. Stimuli were delivered via corneal electrodes (Stean T O, Atkins A R, Heidbreder C A, Quinn L P, Trail B K, Upton N. (2005) Br J. Pharmacol. 144(5):628-35). Seizure threshold was determined using the ‘up and down’ method of Kimball et al. (1957)(Kimball A W, Burnett W T Jr, Doherty D G. (1957) Radiat Res. 7(1):1-12). The first animal tested in each group was stimulated with a current that might be expected to be close to the threshold for induction of a seizure. If a tonic seizure was not induced, then next animal in the group received a stimulus 5 mA higher. If a tonic seizure was induced, then the next animal received a stimulus 5 mA lower. This is repeated for all animals within the control (vehicle) group. In the case of groups treated with a sodium channel blocker steps of 10 to 30 mA were used.
(§1) All doses were calculated as base. ENa9 and ENa13 were dosed via the subcutaneous (s.c.) route at 1 ml/kg in a 2% v/v DMSO/saline vehicle 30 minutes prior to test. ENa7 and ENa14 were dosed orally (p.o.) in a 1% w/v methylcellulose/water vehicle at 2 ml/kg, 60 minutes before test. Compound ENK6 was dosed with via the intraperitoneal (i.p.) route 60 minutes before the test or via the s.c. route 15 minutes before test. In both cases ENK6 was dissolved in saline.
Induction of seizure is measured as an all-or-nothing effect scored as either present (+) or absent (0) for each animal. The data for each treatment group were recorded as the number of +'s and 0's at each current level employed and this information was then used to calculate the CC50 value (current required for 50% of animals to show seizure behaviour)+standard error of the mean according to the method of Kimball et al. (1957). Drug effects were calculated as the % change in CC50. Significant differences between drug-treated animals and appropriate vehicle treated groups were assessed according to the methods of Litchfield and Wilcoxon (1949). The statistical significance of differences between sodium channel blocker alone or in combination with ENK6 was assessed using a Student's t test.

[2] = Blood and brain concentrations in satellite animals of the MEST study; assay type: in vivo, rat; conditions: satellite rats; for concentration at 60 min: rat, po, n = 1
Experimental: Satellite animals (n=3/group) received the same drugs or combinations of drugs as the test groups, and were culled at the appropriate time after dosing. Blood and brain samples were taken for analysis of the drug concentrations in these compartments.
as §1

[3] = ENK6 10 mg/kg s.c. + ENa7 1 mg/kg p.o., n = 2-3
[4] = ENK6 10 mg/kg s.c. + ENa7 3 mg/kg p.o., n = 2-3
[5] = ENK6 30 mg/kg s.c. + ENa7 1 mg/kg p.o., n = 2
[6] = ENK6 30 mg/kg s.c. + ENa7 3 mg/kg p.o., n = 2

Nc1nnc(-c2cccc(Cl)c2Cl)c(N)n1 [ENa7, 3,5-diamino-6-(2,3-dichlorophenyl)-1,2,4-triazine, reference compound]
increase in CC50 (mA) ([1]; sodium channel blocker 1 mg/kg p.o. in the presence of ENK6 10 mg/kg s.c. (first experiment)): 61%
increase in CC50 (mA) ([1]; sodium channel blocker 1 mg/kg p.o. in the presence of ENK6 30 mg/kg s.c.): 145%
increase in CC50 (mA) ([1]; sodium channel blocker 3 mg/kg p.o. in the presence of ENK6 30 mg/kg s.c. (second experiment)): 233%
effect on seizure threshold ([1]; sodium channel blocker alone, 1 mg/kg p.o., 60 minutes before the test): little or no increase in seizure threshold
increase in seizure threshold ([1]; sodium channel blocker alone, 3 mg/kg p.o., 60 minutes before the test, two independent experiments): 128-205%
concentration at 60 min ([2]; blood, 1 mg/kg, ENK6 veh + ENa7 1 mg/kg p.o. (Table 3), read-out: Blood concentration): 311 ng/mL
concentration at 60 min ([2]; blood, 1 mg/kg, ENK6 veh + ENa7 1 mg/kg p.o. (Table 4), read-out: Blood concentration): 352 ng/mL
concentration at 60 min ([2]; blood, 3 mg/kg, ENK6 veh + ENa7 3 mg/kg p.o. (Table 3), read-out: Blood concentration): 1180 ng/mL
concentration at 60 min ([2]; blood, 3 mg/kg, ENK6 veh + ENa7 3 mg/kg p.o. (Table 4), read-out: Blood concentration): 1350 ng/mL
concentration at 60 min ([2]; brain, 1 mg/kg, ENK6 veh + ENa7 1 mg/kg p.o. (Table 3), read-out: Brain concentration): 517 ng/g
concentration at 60 min ([2]; brain, 1 mg/kg, ENK6 veh + ENa7 1 mg/kg p.o. (Table 4), read-out: Brain concentration): 588 ng/g
concentration at 60 min ([2]; brain, 3 mg/kg, ENK6 veh + ENa7 3 mg/kg p.o. (Table 3), read-out: Brain concentration): 2830 ng/g
concentration at 60 min ([2]; brain, 3 mg/kg, ENK6 veh + ENa7 3 mg/kg p.o. (Table 4), read-out: Brain concentration): 2190 ng/g
Blood concentration [2, 3]: 581 ng/mL
Brain concentration [2, 3]: 1125 ng/g
Blood concentration [2, 4]: 1603 ng/mL
Brain concentration [2, 4]: 2855 ng/g
Blood concentration [2, 5]: 461 ng/mL
Brain concentration [2, 5]: 752 ng/g
Blood concentration [2, 6]: 1404 ng/mL
Brain concentration [2, 6]: 2096 ng/g
